How the values were obtained:
SNB-75 = test: panel of 60 human tumor cell lines, growth inhibition (CNS Cancer); details: Homo sapiens
SF-295 = test: as above; details: Homo sapiens
A498 = test: panel of 60 human tumor cell lines, growth inhibition (Renal Cancer); details: Homo sapiens
SK-MEL-28 = test: panel of 60 human tumor cell lines, growth inhibition (Melanoma); details: Homo sapiens
NCI-H23 = test: panel of 60 human tumor cell lines, growth inhibition (Non-Small Cell Lung Cancer); details: Homo sapiens
M14 = test: panel of 60 human tumor cell lines, growth inhibition (Melanoma); details: Homo sapiens
A549/ATCC = test: panel of 60 human tumor cell lines, growth inhibition (Non-Small Cell Lung Cancer); details: Homo sapiens, A549, read-out: LC50
OVCAR-3 = test: panel of 60 human tumor cell lines, growth inhibition (Ovarian Cancer)
PC-3 = test: panel of 60 human tumor cell lines, growth inhibition (Prostate Cancer); details: Homo sapiens
UACC-62 = test: panel of 60 human tumor cell lines, growth inhibition (Melanoma); details: Homo sapiens
UACC-257 = test: as above
SR = test: panel of 60 human tumor cell lines, growth inhibition (Leukemia); details: Homo sapiens
NCI-H322M = test: panel of 60 human tumor cell lines, growth inhibition (Non-Small Cell Lung Cancer); details: Homo sapiens
MDA-MB-468 = test: panel of 60 human tumor cell lines, growth inhibition (Breast Cancer); details: Homo sapiens
SNB-19 = test: panel of 60 human tumor cell lines, growth inhibition (CNS Cancer); details: Homo sapiens
TK-10 = test: panel of 60 human tumor cell lines, growth inhibition (Renal Cancer); details: Homo sapiens
U251 = test: panel of 60 human tumor cell lines, growth inhibition (CNS Cancer); details: Homo sapiens

C=C1C(=O)O[C@H]2[C@H]1CC/C(COC(=O)OCCCN1CCCCC1)=C\CC[C@@]1(C)O[C@@H]21 [JVM 2-26]
GI50 (SNB-75; SNB-75): 2.59 µM
CC50 (SNB-75; SNB-75, read-out: LC50): 40.6 µM
IC (TGI) (SNB-75; SNB-75, read-out: TGI): 16.5 µM
GI50 (SF-295; SF-295): 15.4 µM
CC50 (SF-295; SF-295, read-out: LC50): 73.2 µM
IC (TGI) (SF-295; SF-295, read-out: TGI): 33.5 µM
GI50 (A498; A498): 10.1 µM
CC50 (A498; A498, read-out: LC50): 47 µM
IC (TGI) (A498; A498, read-out: TGI): 21.8 µM
GI50 (SK-MEL-28; SK-MEL-28): 3.83 µM
CC50 (SK-MEL-28; SK-MEL-28, read-out: LC50): 41 µM
IC (TGI) (SK-MEL-28; SK-MEL-28, read-out: TGI): 15.5 µM
GI50 (NCI-H23; NCI-H23): 12.8 µM
CC50 (NCI-H23; NCI-H23, read-out: LC50): 67.1 µM
IC (TGI) (NCI-H23; NCI-H23, read-out: TGI): 29.4 µM
GI50 (M14; M14): 3.85 µM
CC50 (M14; M14, read-out: LC50): 41.1 µM
IC (TGI) (M14; M14, read-out: TGI): 15.5 µM
CC50 (A549/ATCC): 67.2 µM
GI50 (OVCAR-3; Homo sapiens, OVCAR-3): 1.96 µM
CC50 (OVCAR-3; Homo sapiens, OVCAR-3, read-out: LC50): 22 µM
IC (TGI) (OVCAR-3; Homo sapiens, OVCAR-3, read-out: TGI): 5.88 µM
Percent Growth (OVCAR-3; OVCAR-3, Log10 Concentration −4.0): −100%
Percent Growth (OVCAR-3; OVCAR-3, Log10 Concentration −5.0): −24%
Percent Growth (OVCAR-3; OVCAR-3, Log10 Concentration −6.0): 80%
Percent Growth (OVCAR-3; OVCAR-3, Log10 Concentration −7.0): 96%
Percent Growth (OVCAR-3; OVCAR-3, Log10 Concentration −8.0): 98%
GI50 (PC-3; PC-3): 12.7 µM
CC50 (PC-3; PC-3, read-out: LC50): 56.2 µM
IC (TGI) (PC-3; PC-3, read-out: TGI): 16.7 µM
GI50 (UACC-62; UACC-62): 8.05 µM
CC50 (UACC-62; UACC-62, read-out: LC50): 47.1 µM
IC (TGI) (UACC-62; UACC-62, read-out: TGI): 11 µM
GI50 (UACC-257; Homo sapiens, UACC-257): 5.34 µM
CC50 (UACC-257; Homo sapiens, UACC-257, read-out: LC50): 45.6 µM
TGI (UACC-257; UACC-257): 1.87E−5
Percent Growth (UACC-257; UACC-257, Log10 Concentration −4.0): −94%
Percent Growth (UACC-257; UACC-257, Log10 Concentration −5.0): 35%
Percent Growth (UACC-257; UACC-257, Log10 Concentration −6.0): 90%
Percent Growth (UACC-257; UACC-257, Log10 Concentration −7.0): 67%
Percent Growth (UACC-257; UACC-257, Log10 Concentration −8.0): 91%
GI50 (SR): 2.12 µM
CC50 (SR; read-out: LC50): 83.9 µM
IC (TGI) (SR; read-out: TGI): 10.2 µM
GI50 (NCI-H322M): 17.2 µM
CC50 (NCI-H322M; read-out: LC50): > 100 µM
IC (TGI) (NCI-H322M; read-out: TGI): 54.4 µM
GI50 (MDA-MB-468; MDA-MB-468): 0.601 µM
CC50 (MDA-MB-468; MDA-MB-468, read-out: LC50): 10.5 µM
IC (TGI) (MDA-MB-468; MDA-MB-468, read-out: TGI): 2.78 µM
GI50 (SNB-19; SNB-19): 13.5 µM
CC50 (SNB-19; SNB-19, read-out: LC50): 56.3 µM
IC (TGI) (SNB-19; SNB-19, read-out: TGI): 27.5 µM
GI50 (TK-10; TK-10, TK-10): 2.03 µM
CC50 (TK-10; TK-10, read-out: LC50): 25.5 µM
IC (TGI) (TK-10; TK-10, read-out: TGI): 6.82 µM
GI50 (U251; U-251): 16.7 µM
CC50 (U251; U-251, read-out: LC50): 62.7 µM
IC (TGI) (U251; U-251, read-out: TGI): 32.4 µM

From patent US9469650B2, “Melampomagnolide B derivatives” (BOARD OF TRUSTEES OF THE UNIVERSITY OF ARKANSAS, priority 2013, dated 2016)
